Results from article PMC6801405, “Discovery of 3-Arylquinoxaline Derivatives as Potential Anti-Dengue Virus Agents” (International Journal of Molecular Sciences, 2019).

Key:
[1] = system: DENV2; assay: microbe, parasite or virus in culture; type: cell-based, dengue virus
Description: Anti-DENV activities were determined by firefly luciferase activity.

[2] = system: DENV; assay: DENV RNA levels by RT-qPCR in DENV-infected Huh-7 cells; type: cell-based, dengue virus; settings: 0.5, 1, 5 and 10 μM, three days
Description: To further confirm the anti-DENV effect of compound 19a, we treated compound 19a at indicated concentrations in Huh-7 cells for three days.
Total cellular RNA samples were extracted after three days of compound treatment through a Total RNA Miniprep Purification Kit (GeneMark Biolab, Taiwan) following the manufacturer’s instructions, and then transcribed to complementary DNA (cDNA) with Moloney murine leukemia virus (M-MLV) reverse transcriptase (Promega, USA). The levels of DENV-2 replication and COX-2 were analyzed by RT-PCR as described previously with the following specific primers: a forward primer, 5′–[…] AGC–3′, and a reverse primer, 5′–[…]–3′, targeting the DENV-2 NS5 gene 44. DENV-2 and COX-2 RNA levels were normalized to the cellular glyceraldehyde-3-phosphate dehydrogenase (GAPDH) RNA level of each sample.
Figure 2 Inhibition of dengue virus (DENV) RNA expression in DENV-infected Huh-7 cells by 19a. Huh-7 cells were treated with 0.5, 1, 5, and 10 μM 19a for three days. Total RNA was extracted and quantified DENV RNA levels by RT-qPCR. DENV RNA expression was normalized by cellular glyceraldehyde-3-phosphate dehydrogenase (GAPDH) mRNA. Treatment with 0.1% dimethyl sulfoxide (DMSO) served as a mock control. The results are expressed as the means ± standard deviations (SD) of triplicate experiments.

[3] = system: COX-2 promoter; assay: COX-2 promoter-based reporter assay (pCOX-2-Luc) in DENV-infected Huh-7 cells; type: cell-based, Human; settings: increasing concentrations, three days
Description: We also used a COX-2 promoter-based reporter assay to evaluate the inhibitory effect of 19a on COX-2 at the transcriptional level. The pCOX-2-Luc, a plasmid encoding firefly luciferase under the control of the COX-2 promoter, was transfected into Huh-7 cells or DENV-infected Huh-7 cells and, then, these plasmid-transfected cells were incubated with 19a at increasing concentrations for three days.
Huh-7-DV-Fluc cells were seeded in 24-well plates at a density of 2 × 10^4 cells per well, and treated with the 3-arylquinoxaline compounds at two concentrations (1 and 10 μM) or 0.1% DMSO as control. After three days of incubation, the luciferase activity assay was performed using the Bright-Glo Luciferase assay system (Promega, Madison, WI, USA) according to the manufacturer’s instructions. […] After three days, protein and RNA levels were analyzed by Western blotting with a specific antibody as previously described respectively.
Figure 4 Inhibitory effect of 19a on DENV-induced cyclooxygenase-2 (COX-2) expression in Huh-7 cells. […] The results are expressed as the means ± standard deviations (SD) of triplicate experiments.

COc1ccc(-c2nc3ccccc3nc2C(O)c2ccccc2)cc1 (stereo not shown) [Compound 19a, [3-(4-Methoxyphenyl)quinoxalin-2-yl](phenyl)methanol]
DENV2 % Inhibition at 10 μM ([1]; 10 μM, Huh-7-DV-Fluc cells, three days, mean ± SD): 82.71 ± 2.88% | SI (selectivity index, CC50/EC50) ([1]; CC50 Huh-7 / EC50 DENV): >155.04 | inhibition at 1 µM ([1]; Dengue virus, DENV2, 72 h, 1 μM, Huh-7-DV-Fluc cells, three days, mean ± SD): 36.7 ± 3.71% | EC50 ([1]; Dengue virus, DENV2, DENV replication, mean ± SD, read-out: EC50 (concentration resulting in a 50% inhibition in virus production)): 1.29 ± 0.74 µM | fold more anti-DENV activity than ribavirin ([1]; EC50 compared with ribavirin): approximately 10 fold | DENV RNA replication (RT-qPCR) [2]: dose-dependently reduced | DENV-elevated COX-2 promoter activity [3]: dose-dependently decreased
